Assays:
Candida albicans KMM 455 = assay: Antimicrobial activity, microbial growth in broth (OD620); type: cell-based; settings: for inhibition of growth at 100 µM: Candida albicans, KMM455, compound at 100 µM, read-out: Inhibition of Microbial Growth, % of Control, C. albicans
Method: (§1) The yeast-like fungus Candida albicans KMM 455 and bacterial strains Staphylococcus aureus ATCC 21027 and Escherichia coli VKPM (B-7935) (Collection of Marine Microorganisms PIBOC FEB RAS) were cultured on solid-medium Mueller–Hinton broth with agar (16.0 g/L) in a Petri dish at 37 °C for 24 h. The assays were performed in 96-well microplates in an appropriate Mueller–Hinton broth. Each well contained 90 µL of a bacterial or yeast-like fungal suspension (10^6 CFU/mL). Then, 10 µL was added of a compound diluted at concentrations from 1.5 µM to 100.0 µM using twofold dilution (DMSO concentration < 1%). Culture plates were incubated overnight at 37 °C, and the OD620 was measured using a Multiskan FC spectrophotometer (Thermo Scientific Inc., Beverly, MA, USA). The antibiotic gentamicin and antifungal agent nitrofungin were used as positive controls at 1 mg/mL; 1% DMSO in PBS served as a negative control. Examination was performed twice and in triplicate. The results were calculated as a percentage of the control data using SigmaPlot 14.0 software.

[1] = tested on: Escherichia coli VKPM (B-7935); assay: as above; type: cell-based; settings: read-out: Inhibition of Microbial Growth, % of Control, E. coli; for inhibition of growth at 100 µM: compound at 100 µM
Method: as §1

[2] = tested on: Staphylococcus aureus ATCC 21027; assay: as above; type: cell-based; settings: read-out: Inhibition of Microbial Growth, % of Control, S. aureus; for inhibition of growth at 100 µM: ATCC21027, compound at 100 µM
Method: as §1

[3] = tested on: CoCl2-treated HEK-293 cells; assay: Lipid peroxidation level (MitoCLox) in CoCl2-treated cells; type: cell-based, human; settings: MitoCLox fluorescence dye
Method: The fluorescence probe MitoCLox (Lumiprobe, Moscow, Russia) was used for the detection of the lipid peroxidation level in CoCl2-treated cells. It was added in the cells for 1 h at a concentration of 200 nM. After 1 h, the cells were washed with PBS and fluorescence was measured in ratiometric mode with λem = 520/590 nm using a PHERAStar FS plate reader (BMG Labtech, Offenburg, Germany). The data were processed with MARS Data Analysis v. 3.01R2 (BMG Labtech, Offenburg, Germany) and calculated as a 520/590 ratio.

[4] = tested on: human prostate PC-3 cancer cells; assay: Cytotoxic activity (MTT assay); type: cell-based; settings: 100 µM, 24 h, MTT
Method: (§2) The human prostate cancer cells PC-3 and CRL-1435 and the human embryonic kidney cells HEK-293 and CRL-1573TM were purchased from the American Type Culture Collection (ATCC; Manassas, VA, USA). PC-3 and HEK-293 cells were cultured in DMEM medium containing 10% fetal bovine serum (Biolot, St. Petersburg, Russia) and 1% penicillin/streptomycin (Biolot, St. Petersburg, Russia) at 37 °C in a humidified atmosphere with 5% (v/v) CO2. The cells were incubated in cultural flasks until sub-confluent (~80%).
(§3) PC-3 cells (5 × 10^3 cells/well) and HEK 293 cells (8 × 10^3 cells/well) were seeded in a 96-well plate and incubated overnight. […] Cell viability was then determined by the MTT (3-(4,5-dimethylthiazol-2-yl)-2,5-diphenyltetrazolium bromide) method according to the manufacturer’s instructions (Sigma-Aldrich, St. Louis, MO, USA). The absorbance of the converted formazan was measured using a Multiskan FC microplate photometer (Thermo Scientific, Waltham, MA, USA) at λ = 570 nm. The results are presented as percentages of the control data.

[5] = tested on: normal human kidney cells; assay: Cytotoxic activity (MTT assay); type: cell-based; settings: 100 µM, 24 h
Method: (§4) The influence of compounds 1, 2 and 4–14 on the viability of normal human kidney […] cells, as well as human prostate PC-3, cervical HeLa and breast MCF-7 cancer cells, was measured using the MTT assay after 24 h of treatment.
as §2
PC-3 cells (5 × 10^3 cells/well) and HEK 293 cells (8 × 10^3 cells/well) were seeded in a 96-well plate and incubated overnight. Then, compounds were added at concentrations of 1–100 μM and incubated for another 24 h. Cell viability was then determined by the MTT (3-(4,5-dimethylthiazol-2-yl)-2,5-diphenyltetrazolium bromide) method according to the manufacturer’s instructions (Sigma-Aldrich, St. Louis, MO, USA). The absorbance of the converted formazan was measured using a Multiskan FC microplate photometer (Thermo Scientific, Waltham, MA, USA) at λ = 570 nm. The results are presented as percentages of the control data.

[6] = tested on: breast MCF-7 cancer cells; assay: Cytotoxic activity (MTT assay); type: cell-based, human; settings: 100 µM, 24 h, MTT
Method: as §4, §3

[7] = tested on: cervical HeLa cancer cells; assay: Cytotoxic activity (MTT assay); type: cell-based, human; settings: 24 h; for Cell Viability, % of Control, HeLa: 100 µM, MTT; for IC50: Homo sapiens, HeLa, read-out: IC50, HeLa cell viability
[8] = tested on: autophagy-related cargo protein p62; parameters: method as in PMID 28218691; settings: PC-3 cells; cited from earlier work
MCF-7 cells = assay: Drug combination study with doxorubicin (MTT); type: cell-based, human; settings: 24 h

Compound | inhibition of growth at 100 µM (Candida albicans KMM 455) [%] | inhibition of growth at 100 µM [1] [%] | inhibition of growth at 100 µM [2] [%] | lipid peroxide levels in CoCl2-treated HEK-293 cells [3] | Cell Viability, % of Control, PC-3 [4] | Cell Viability, % of Control, HEK-298 [5] | Cell Viability, % of Control, MCF-7 [6] | Cell Viability, % of Control, HeLa [7] | IC50 [7] [µM] | effect on autophagy-related cargo protein p62 [8] | decrease of MCF-7 cell viability (MCF-7 cells; doxorubicin alone at 0.1 µM) [%] | decrease of MCF-7 cell viability (MCF-7 cells; doxorubicin alone at 1 µM) | inhibition of growth at 1000 µg/mL ([1]; positive control at 1 mg/mL) [%] | inhibition of growth at 1000 µg/mL ([2]; ATCC21027, positive control at 1 mg/mL) [%] | Inhibition of Microbial Growth, % of Control, C. albicans (Candida albicans KMM 455; positive control at 1 mg/mL)
C[C@H]1CC[C@H]2C(=C[C@@H](O)[C@@](C)(O)[C@@H]2C(=O)CCO)C1 [Compound 9, zosteropenilline R] | 12 ± 1.14 | 0 | 11.7 ± 1.71 | significantly decreased | 96.44 ± 7.63 % of Control | 96.45 ± 7.64 % of Control | 79.64 ± 1.67 % of Control | 79.14 ± 6.36 % of Control |  |  |  |  |  |  | 
C[C@H]1CC[C@@H]2[C@@H](C(=O)CCO)[C@](C)(O)C=C[C@H]2C1 [Compound 11, zosteropenilline G] | 18.1 ± 2.58 | 0 | 16.9 ± 4.12 |  | 93.97 ± 2.36 % of Control | 93.97 ± 2.36 % of Control | 81.00 ± 2.38 % of Control | 34.35 ± 1.90 % of Control | 79.7 | upregulators |  |  |  |  | 
CC1(O)CCC2C(C=CC(C)(O)C2C(=O)CCO)C1 (stereo not shown) [Compound 4, 8-hydroxyzosteropenilline G] | 11 ± 2.31 | 0 | 0 |  | 94.71 ± 1.53 % of Control | 94.71 ± 1.53 % of Control | 81.92 ± 3.92 % of Control | 81.80 ± 6.76 % of Control |  |  |  |  |  |  | 
CC1=CC(O)C2CC(C)(O)CCC2C1C(=O)CCO (stereo not drawn) [Compound 2, 11-epi-8-hydroxyzosteropenilline M] | 6.12 ± 1.89 | 0 | 0 |  | 90.98 ± 2.82 % of Control | 90.98 ± 2.82 % of Control | 57.46 ± 1.82 % of Control | 44.12 ± 5.13 % of Control | 87.3 |  |  |  |  |  | 
COc1cccc2c1C(=O)c1c(O)c3c(c(O)c1C2=O)C[C@@](O)(C(=O)CO)C[C@@H]3O[C@H]1C[C@H](N)[C@H](O)[C@H](C)O1 [doxorubicin, reference compound] |  |  |  |  |  |  |  |  |  |  | 30 | approximately 60% |  |  | 
CNC(C)C1CCC(N)C(OC2C(N)CC(N)C(OC3OCC(C)(O)C(NC)C3O)C2O)O1 (stereo not shown) [Gentamicin, gentamicin, reference compound] |  |  |  |  |  |  |  |  |  |  |  |  | 97.6 ± 2.1 | 98.6 ± 1.15 | 
CC1CCC2C(C1)C(Cl)C(O)C(C)(O)C2C(=O)CCO (stereo not shown) [Compound 10, zosteropenilline S] | 0 | 0 | 15.7 ± 0.36 |  | 85.98 ± 2.13 % of Control | 98.10 ± 1.15 % of Control | 84.85 ± 4.90 % of Control | 68.69 ± 6.21 % of Control |  |  |  |  |  |  | 
CC1=C[C@H](O)[C@H]2C[C@@H](C)CC[C@@H]2[C@H]1C(=O)CCO [Compound 1, zosteropenilline M] | 8.32 ± 0.62 | 0 | 30.1 ± 2.42 | significantly decreased | 89.25 ± 0.44 % of Control | 95.16 ± 4.01 % of Control | 86.42 ± 1.76 % of Control | 66.49 ± 6.19 % of Control |  |  |  |  |  |  | 
CC(=O)C1C2CCC(C)C(O)C2C=CC1(C)O (stereo not shown) [Compound 7, zosteropenilline Q] | 19.2 ± 3.12 | 0 | 29.9 ± 4.5 |  | 88.70 ± 1.10 % of Control | 80.00 ± 0.99 % of Control | 76.23 ± 4.53 % of Control | 80.80 ± 3.25 % of Control |  |  |  |  |  |  | 
C[C@H]1CC[C@H]2[C@@H](C=C[C@@](C)(O)[C@@H]2C(=O)CCO)[C@@H]1O [Compound 13, pallidopenilline A] | 0 | 0 | 15.5 ± 1.35 |  | 89.76 ± 3.31 % of Control | 89.76 ± 3.31 % of Control | 95.05 ± 1.51 % of Control | 71.85 ± 3.02 % of Control |  |  |  |  |  |  | 
C[C@H]1C=C[C@H]2[C@H](O)[C@@H](C)CC[C@@H]2[C@H]1C(=O)CCO [Compound 8, 13-dehydroxypallidopenilline A] | 0 | 0 | 19.9 ± 1.82 |  | 83.60 ± 1.81 % of Control | 86.10 ± 2.24 % of Control | 81.21 ± 5.56 % of Control | 72.66 ± 2.49 % of Control |  |  |  |  |  |  | 
O=[N+]([O-])c1ccc(O)c(Cl)c1 [nitrofungin, reference compound] |  |  |  |  |  |  |  |  |  |  |  |  |  |  | 98.13 ± 0.69 % of Control
C[C@H]1CC[C@H]2[C@@H](C=C[C@]3(C)OCCC(=O)[C@H]23)[C@@H]1O [zosteropenilline A] |  |  |  |  |  |  |  |  |  | upregulators |  |  |  |  | 
CC(=O)[C@@H]1[C@H]2CC[C@H](CO)C[C@@H]2C=C[C@@]1(C)O [Compound 6, zosteropenilline P] | 17.3 ± 2.55 | 0 | 29 ± 1.66 |  | 83.15 ± 1.72 % of Control | 83.26 ± 3.78 % of Control | 82.05 ± 1.31 % of Control | 71.44 ± 3.99 % of Control |  |  |  |  |  |  | 
CC(=O)[C@@H]1[C@H]2CC[C@@](C)(O)C[C@@H]2C=C[C@@]1(C)O [Compound 5, zosteropenilline O] | 35.3 ± 1.16 | 0 | 0 | significantly decreased | 91.20 ± 3.37 % of Control | 85.64 ± 1.85 % of Control | 77.40 ± 2.73 % of Control | 37.12 ± 3.85 % of Control | 82.5 |  |  |  |  |  | 
C[C@@]1(O)CC[C@@H]2[C@H]3C(=O)CCO[C@@]3(C)C=C[C@H]2C1 [zosteropenilline C] |  |  |  |  |  |  |  |  |  | upregulators |  |  |  |  | 

— article PMC11277992, “New Zosteropenillines and Pallidopenillines from the Seagrass-Derived Fungus Penicillium yezoense KMM 4679” (Marine Drugs, 2024)
